The text below walks through data of ChEMBL document CHEMBL1201862, “PubChem BioAssay data set” (2004).

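Step 1: Grow cells in 96-well plates. Step 2: Expose to compound for 48 hours at 5 concentrations. Step 3: Interpolate endpoints linearly; if unreached, use highest concentration. GI50 marks 50% less growth.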 The source made the active and inactive calls. No stated cut-off is given here; in the data, active = GI50 up to about 1.1 µM and inactive = higher.

Some test systems named below: SF-268; MDA-N; MCF7; SF-295; DU-145; RXF 393; SF-539; U-251; SK-MEL-2; EKVX; BT-549; SW-620; KM12; COLO 205; OVCAR-3; SK-MEL-5; SK-OV-3; NCI-H226; HT-29; SR.
Common to all, as to assay: inhibition of tumour cell growth, NCI panel, 48 h

For `Cc1nc2ccc(NCCN(C)C)c3c(=O)c4ccccc4n1c23`, the GI50 was 3.48 µM (inactive) in the assay on SF-268; 1.66 µM (inactive) in the assay on MDA-N; 3.3 µM (inactive) with MCF7; 1.84 µM (inactive) with SF-295; 2.07 µM (inactive) in the assay with DU-145; 10.5 µM (inactive) in the assay with RXF 393. In addition, the GI50 was 2.74 µM (inactive) in the assay with SF-539; 2.22 µM (inactive) in the assay on U-251; 5.47 µM (inactive) in the assay on SK-MEL-2; 3.05 µM (inactive) with EKVX; 10.5 µM (inactive) in the assay with BT-549; 0.601 µM (active) in the assay with SW-620. Moreover, the GI50 was 2.21 µM (inactive) in the assay with KM12; 1.17 µM (inactive) in the assay on COLO 205; 5 µM (inactive) in the assay with OVCAR-3; 2.21 µM (inactive) in the assay on SK-MEL-5; 3.96 µM (inactive) in the assay on SK-OV-3; 1.56 µM (inactive) with NCI-H226. Further, the GI50 is 1.02 µM (active) in the assay with HT-29 and 0.439 µM (active) in the assay on SR.
Take `COc1ccc(/C=N/NC(=O)c2ccc(O)c(CN(C)C)c2)cc1`: the GI50 in the assay on SF-268, in the assay on MDA-N, in the assay with MCF7, with SF-295, with DU-145 and in the assay on RXF 393 was > 100 µM (inactive) in each case. The GI50 in the assay on SF-539, with U-251, with SK-MEL-2, in the assay with EKVX, in the assay with BT-549 and with SW-620 was > 100 µM (inactive) in each case. In addition, the GI50 with KM12, in the assay with COLO 205, in the assay on OVCAR-3, with SK-MEL-5, with SK-OV-3 and in the assay on NCI-H226 was > 100 µM (inactive) in each case. Besides, the GI50 in the assay on HT-29 and with SR was > 100 µM (inactive) each time.
As to `CC(=O)OCCCC(NC(=O)OC(C)(C)C)C(=O)NC(CCCOC(C)=O)C(=O)NC(Cc1ccc([N+](=O)[O-])cc1)C(=O)NCC(=O)OCc1ccccc1` (stereo not given), the GI50 is 20.2 µM (inactive) with SF-268; 15.3 µM (inactive) in the assay on MDA-N; 17.9 µM (inactive) in the assay with MCF7; 11.9 µM (inactive) in the assay with SF-295; 16.4 µM (inactive) with DU-145; 13.1 µM (inactive) with RXF 393. For the same compound, the GI50 is 15.3 µM (inactive) in the assay on SF-539; 18.4 µM (inactive) with U-251; 15.4 µM (inactive) with SK-MEL-2; 18.3 µM (inactive) in the assay with EKVX; 18.5 µM (inactive) in the assay on BT-549; 16.9 µM (inactive) in the assay on SW-620. Also, the GI50 in the assay with KM12 was 15.6 µM (inactive); in the assay on COLO 205, 17.6 µM (inactive); in the assay on OVCAR-3 it was 16.5 µM (inactive); in the assay with SK-MEL-5 it was 16.4 µM (inactive); in the assay with SK-OV-3, 26.1 µM (inactive); with NCI-H226 it was 16.1 µM (inactive). For the same compound, the GI50 in the assay with HT-29 was 17.9 µM (inactive); with SR it was 15.6 µM (inactive).
As to `CCC1(c2ccc(N)cc2)CCC(=O)NC1=O` (stereo not given) [AMINOGLUTETHIMIDE], the GI50 was 2860 µM (inactive) in the assay on SF-268; 3250 µM (inactive) in the assay with MDA-N; 3010 µM (inactive) in the assay on MCF7; 1880 µM (inactive) in the assay on SF-295; 3030 µM (inactive) in the assay on DU-145; 1330 µM (inactive) in the assay on RXF 393. The GI50 was 3240 µM (inactive) in the assay on SF-539; 2050 µM (inactive) in the assay with U-251; 3510 µM (inactive) with SK-MEL-2; 3880 µM (inactive) in the assay with EKVX; 1660 µM (inactive) in the assay with BT-549; 3520 µM (inactive) in the assay with SW-620. Further, the GI50 in the assay on KM12 was 2470 µM (inactive); in the assay on COLO 205 it was 1470 µM (inactive); in the assay with OVCAR-3, 1810 µM (inactive); in the assay on SK-MEL-5, 2090 µM (inactive); in the assay with SK-OV-3, 1190 µM (inactive); in the assay with NCI-H226 it was 1880 µM (inactive). For the same compound, the figures for the GI50 in the assay on HT-29 and with SR were 2960 µM (inactive) and > 3820 µM (inactive), respectively.
